A short description of this data set: in vivo. The following applies: dog, iv, 10 mg/kg. Set-up: species or system dogs. How it is done: The formulations of 4-MP with PEG-300 and PEG-400 show an oral bioavailability of about 110% when compared with an i.v. formulation at a dose of 10mg/kg in PK studies in dogs.
The following tables 1 to 3 show results of pharmacokinetic studies of the formulation of Example 3 (capsule containing 50 mg 4-MP and 250 mg PEG-400; Table 1) in comparison with a reference formulation (capsule containing 50 mg 4-MP and PEG-8000; Table 2) and IV administration of 4-MP. For these pharmacokinetic studies, 4-MP was administered to dogs at 10 mg/kg body weight. Table 1: Pharmacokinetic parameters of 4-methylpyrazole following oral administration of the formulation of Example 3 at 10 mg/kg: […]

The AUC(0-t) is exposure summed from dosing to a finite time, without extrapolation to infinity. High values mean high exposure, low ones low exposure. One may read the AUC(0-inf) as total exposure, with the tail of the curve extrapolated. Read a high AUC(0-inf) as more exposure. One may read the clearance as the rate of elimination divided by the concentration. By Cmax is commonly meant the peak of the concentration-time curve. One may read the Vd as a proportionality between amount in the body and measured concentration, not a real space. A low value points to confinement near the circulation. Where the note is “AUC0-t”, `Cc1cn[nH]c1` [4-methylpyrazole, 4-Methylpyrazole] displayed an AUC(0-t) of 88.3 µg·h/mL. Moreover, the AUC(0-inf) (AUC0-∞) was found to be 145 µg·h/mL. Moreover, the clearance (CL) came to 1.15 mL/min/kg. Moreover, the Cmax (Cmax) came to 22600 ng/mL. Further, the Vd by setting is: (Vd) 0.94 L/kg; (Vdss) 0.89 L/kg.

These data come from patent EP3323412A1, “FORMULATION COMPRISING 4-METHYLPYRAZOLE” (Amalicon Holding AG, priority 2016, dated 2018).
